Data as given in patent publication US20080103205A1, “Pesticidal compositions and methods of use” (priority 2006, published 2008).
Like-named read-outs stand apart in the source and are kept apart here.

Columns and labels:
Type in all cases: in vivo
Meloidogyne incognita = assay: Toxicity test, J2 juveniles of Meloidogyne incognita, 96 well micro plate; conditions: Meloidogyne incognita
Experimental: (§1) Methodology: Toxicity tests were conducted using J2 juveniles of Meloidogyne incognita adult Caenorhabditis elegans collected from nematode-infested tomato plant roots and culture Petri plates, respectively. Test concentrations of 50, 100, 200, 300, or 400 ppm were prepared in 0.2% dimethylsulfoxide (DMSO) in tap water. Aliquots (300 microliters (ul)) were applied to a 96 well micro plate and a 20 ul aqueous solution containing nematodes was added. The number of nematodes in 20 ul ranged from 17 to 30. Micro plates were sealed with Parafilm™ and incubated at room temperature. Similar tests conducted with 0.2% DMSO in tap water served as controls. Nematode mortality was checked at 24, 48, 72, 120, and 168 hr after incubation. Nematodes that were motionless for 30 sec when observed under a stereomicroscope were considered paralyzed and included in mortality counts. Each concentration was replicated five times and mean percent mortality was calculated after correcting for control mortality using Abbott's formula.
(§2) Data Analysis: Mortality data were analyzed using PROC PROBIT (SAS) program and LC50 values were estimated.

Caenorhabditis elegans = assay: Toxicity test, adult Caenorhabditis elegans, 96 well micro plate; conditions: Caenorhabditis elegans
Experimental: as §1, §2

Drosophila melanogaster = assay: Toxicity against adult Drosophila melanogaster, sugar solution feeding
Experimental: Toxicity tests were conducted using mixed sex adults of D. melanogaster maintained on artificial diet in the department of entomology, Virginia Tech. Test concentrations of 6.25, 12.5, 25, 50 or 100 ppm were prepared in 0.2% dimethyl sulfoxide (DMSO) for DIDS, 9-AC, NPPB, and IAA-94. The above final concentrations were obtained after mixing them in 10 ml of 10% sugar solution. Similar preparations with 0.2% DMSO alone served as controls. One end of a cotton wick was dipped in 0.5 ml of sugar solution and placed on the glass vial containing 10 adult flies of mixed sex. Each concentration of test chemical had 5 replications. Mortality counts of flies were taken 24, 48, and 72 hrs after treatment. Insects without movement upon probing were considered dead. LC50 values and confidence intervals for each chemical were estimated using POLO PLUS software program. The data provided in Tables 3-A and 3-B below confirm that AT blockers are toxic to insects in acute exposures.

[1] = 24 h, read-out: Corrected Mortality (%)
[2] = 48 h, read-out: Corrected Mortality (%)
[3] = 72 h, read-out: Corrected Mortality (%)
[4] = 120 h, read-out: Corrected Mortality (%)
[5] = 168 h, read-out: Corrected Mortality (%)

Which mortality at 50 ppm (Meloidogyne incognita; 24 h) does the source give for `CC1(C2CCCC2)Cc2cc(OCC(=O)O)c(Cl)c(Cl)c2C1=O` (single isomer, unassigned; (+)) [IAA-94, (+)(2-cyclopentyl-6,7-dichloro-2-methyl-1-oxo-5-indanyloxy) acetic acid] here?
Its mortality at 50 ppm is 8%.

What about the mortality at 100 ppm (Meloidogyne incognita; 24 h) of the same compound?
Its mortality at 100 ppm is 10%.

What about the mortality at 200 ppm (Meloidogyne incognita; 24 h) of the same compound?
Its mortality at 200 ppm is 14%.

What about the mortality at 300 ppm (Meloidogyne incognita; 24 h) of the same compound?
Its mortality at 300 ppm is 20%.

And the mortality at 400 ppm (Meloidogyne incognita; 24 h)?
Its mortality at 400 ppm is 24%.

What about the mortality at 50 ppm (Meloidogyne incognita; [1]) of the same compound?
The mortality at 50 ppm was 5%.

What about the mortality at 100 ppm (Meloidogyne incognita; [1]) of the same compound?
The mortality at 100 ppm was 7%.

And the mortality at 200 ppm (Meloidogyne incognita; [1])?
Its mortality at 200 ppm is 11%.

And the mortality at 300 ppm (Meloidogyne incognita; [1])?
Its mortality at 300 ppm is 19%.

And the mortality at 400 ppm (Meloidogyne incognita; [1])?
Its mortality at 400 ppm is 22%.

What about the mortality at 50 ppm (Meloidogyne incognita; 48 h) of the same compound?
Its mortality at 50 ppm is 17%.

And the mortality at 100 ppm (Meloidogyne incognita; 48 h)?
The mortality at 100 ppm was 22%.

What about the mortality at 200 ppm (Meloidogyne incognita; 48 h) of the same compound?
Its mortality at 200 ppm is 34%.

What about the mortality at 300 ppm (Meloidogyne incognita; 48 h) of the same compound?
Its mortality at 300 ppm is 38%.

And the mortality at 400 ppm (Meloidogyne incognita; 48 h)?
The mortality at 400 ppm was 43%.

And the mortality at 50 ppm (Meloidogyne incognita; [2])?
The mortality at 50 ppm was 12%.

What about the mortality at 100 ppm (Meloidogyne incognita; [2]) of the same compound?
Its mortality at 100 ppm is 17%.

And the mortality at 200 ppm (Meloidogyne incognita; [2])?
The mortality at 200 ppm was 30%.

And the mortality at 300 ppm (Meloidogyne incognita; [2])?
Its mortality at 300 ppm is 34%.

What about the mortality at 400 ppm (Meloidogyne incognita; [2]) of the same compound?
The mortality at 400 ppm was 39%.

What about the mortality at 50 ppm (Meloidogyne incognita; 72 h) of the same compound?
The mortality at 50 ppm was 30%.

What about the mortality at 100 ppm (Meloidogyne incognita; 72 h) of the same compound?
Its mortality at 100 ppm is 38%.

What about the mortality at 200 ppm (Meloidogyne incognita; 72 h) of the same compound?
Its mortality at 200 ppm is 61%.

What about the mortality at 300 ppm (Meloidogyne incognita; 72 h) of the same compound?
Its mortality at 300 ppm is 65%.

And the mortality at 400 ppm (Meloidogyne incognita; 72 h)?
The mortality at 400 ppm was 70%.

What about the mortality at 50 ppm (Meloidogyne incognita; [3]) of the same compound?
The mortality at 50 ppm was 22%.

And the mortality at 100 ppm (Meloidogyne incognita; [3])?
Its mortality at 100 ppm is 31%.

What about the mortality at 200 ppm (Meloidogyne incognita; [3]) of the same compound?
The mortality at 200 ppm was 57%.

What about the mortality at 300 ppm (Meloidogyne incognita; [3]) of the same compound?
The mortality at 300 ppm was 61%.

What about the mortality at 400 ppm (Meloidogyne incognita; [3]) of the same compound?
Its mortality at 400 ppm is 67%.

And the mortality at 50 ppm (Meloidogyne incognita; 120 h)?
The mortality at 50 ppm was 51%.

And the mortality at 100 ppm (Meloidogyne incognita; 120 h)?
The mortality at 100 ppm was 61%.

What about the mortality at 200 ppm (Meloidogyne incognita; 120 h) of the same compound?
The mortality at 200 ppm was 83%.

And the mortality at 300 ppm (Meloidogyne incognita; 120 h)?
The mortality at 300 ppm was 90%.

And the mortality at 400 ppm (Meloidogyne incognita; 120 h)?
The mortality at 400 ppm was 97%.

What about the mortality at 50 ppm (Meloidogyne incognita; [4]) of the same compound?
Its mortality at 50 ppm is 45%.

And the mortality at 100 ppm (Meloidogyne incognita; [4])?
The mortality at 100 ppm was 56%.

What about the mortality at 200 ppm (Meloidogyne incognita; [4]) of the same compound?
Its mortality at 200 ppm is 81%.

And the mortality at 300 ppm (Meloidogyne incognita; [4])?
The mortality at 300 ppm was 89%.

What about the mortality at 400 ppm (Meloidogyne incognita; [4]) of the same compound?
The mortality at 400 ppm was 97%.

What about the mortality at 50 ppm (Meloidogyne incognita; 168 h) of the same compound?
Its mortality at 50 ppm is 74%.

And the mortality at 100 ppm (Meloidogyne incognita; 168 h)?
The mortality at 100 ppm was 85%.

And the mortality at 200 ppm (Meloidogyne incognita; 168 h)?
Its mortality at 200 ppm is 99%.

And the mortality at 300 ppm (Meloidogyne incognita; 168 h)?
The mortality at 300 ppm was 100%.

What about the mortality at 400 ppm (Meloidogyne incognita; 168 h) of the same compound?
Its mortality at 400 ppm is 100%.

And the mortality at 50 ppm (Meloidogyne incognita; [5])?
Its mortality at 50 ppm is 71%.

And the mortality at 100 ppm (Meloidogyne incognita; [5])?
Its mortality at 100 ppm is 83%.

What about the mortality at 200 ppm (Meloidogyne incognita; [5]) of the same compound?
Its mortality at 200 ppm is 99%.

What about the mortality at 300 ppm (Meloidogyne incognita; [5]) of the same compound?
Its mortality at 300 ppm is 100%.

What about the mortality at 400 ppm (Meloidogyne incognita; [5]) of the same compound?
Its mortality at 400 ppm is 100%.

And the mortality at 50 ppm (Caenorhabditis elegans; 24 h)?
The mortality at 50 ppm was 8%.

And the mortality at 100 ppm (Caenorhabditis elegans; 24 h)?
Its mortality at 100 ppm is 14%.

And the mortality at 200 ppm (Caenorhabditis elegans; 24 h)?
Its mortality at 200 ppm is 17%.

And the mortality at 300 ppm (Caenorhabditis elegans; 24 h)?
Its mortality at 300 ppm is 21%.

And the mortality at 400 ppm (Caenorhabditis elegans; 24 h)?
The mortality at 400 ppm was 24%.

What about the mortality at 50 ppm (Caenorhabditis elegans; [1]) of the same compound?
Its mortality at 50 ppm is 5%.

And the mortality at 100 ppm (Caenorhabditis elegans; [1])?
Its mortality at 100 ppm is 11%.

What about the mortality at 200 ppm (Caenorhabditis elegans; [1]) of the same compound?
The mortality at 200 ppm was 14%.

And the mortality at 300 ppm (Caenorhabditis elegans; [1])?
The mortality at 300 ppm was 19%.

And the mortality at 400 ppm (Caenorhabditis elegans; [1])?
Its mortality at 400 ppm is 22%.

What about the mortality at 50 ppm (Caenorhabditis elegans; 48 h) of the same compound?
Its mortality at 50 ppm is 17%.

What about the mortality at 100 ppm (Caenorhabditis elegans; 48 h) of the same compound?
Its mortality at 100 ppm is 29%.

What about the mortality at 200 ppm (Caenorhabditis elegans; 48 h) of the same compound?
The mortality at 200 ppm was 38%.

And the mortality at 300 ppm (Caenorhabditis elegans; 48 h)?
Its mortality at 300 ppm is 43%.

What about the mortality at 400 ppm (Caenorhabditis elegans; 48 h) of the same compound?
The mortality at 400 ppm was 48%.

And the mortality at 50 ppm (Caenorhabditis elegans; [2])?
The mortality at 50 ppm was 13%.

And the mortality at 100 ppm (Caenorhabditis elegans; [2])?
Its mortality at 100 ppm is 25%.

What about the mortality at 200 ppm (Caenorhabditis elegans; [2]) of the same compound?
Its mortality at 200 ppm is 35%.

What about the mortality at 300 ppm (Caenorhabditis elegans; [2]) of the same compound?
Its mortality at 300 ppm is 40%.

What about the mortality at 400 ppm (Caenorhabditis elegans; [2]) of the same compound?
Its mortality at 400 ppm is 45%.

What about the mortality at 50 ppm (Caenorhabditis elegans; 72 h) of the same compound?
Its mortality at 50 ppm is 35%.

What about the mortality at 100 ppm (Caenorhabditis elegans; 72 h) of the same compound?
The mortality at 100 ppm was 44%.

What about the mortality at 200 ppm (Caenorhabditis elegans; 72 h) of the same compound?
The mortality at 200 ppm was 64%.

And the mortality at 300 ppm (Caenorhabditis elegans; 72 h)?
The mortality at 300 ppm was 71%.

And the mortality at 400 ppm (Caenorhabditis elegans; 72 h)?
The mortality at 400 ppm was 77%.

What about the mortality at 50 ppm (Caenorhabditis elegans; [3]) of the same compound?
The mortality at 50 ppm was 31%.

And the mortality at 100 ppm (Caenorhabditis elegans; [3])?
The mortality at 100 ppm was 40%.

And the mortality at 200 ppm (Caenorhabditis elegans; [3])?
The mortality at 200 ppm was 62%.

What about the mortality at 300 ppm (Caenorhabditis elegans; [3]) of the same compound?
Its mortality at 300 ppm is 69%.

What about the mortality at 400 ppm (Caenorhabditis elegans; [3]) of the same compound?
The mortality at 400 ppm was 76%.

What about the mortality at 50 ppm (Caenorhabditis elegans; 120 h) of the same compound?
The mortality at 50 ppm was 58%.

And the mortality at 100 ppm (Caenorhabditis elegans; 120 h)?
The mortality at 100 ppm was 70%.

And the mortality at 200 ppm (Caenorhabditis elegans; 120 h)?
The mortality at 200 ppm was 90%.

What about the mortality at 300 ppm (Caenorhabditis elegans; 120 h) of the same compound?
The mortality at 300 ppm was 94%.

What about the mortality at 400 ppm (Caenorhabditis elegans; 120 h) of the same compound?
The mortality at 400 ppm was 98%.

And the mortality at 50 ppm (Caenorhabditis elegans; [4])?
The mortality at 50 ppm was 53%.

What about the mortality at 100 ppm (Caenorhabditis elegans; [4]) of the same compound?
The mortality at 100 ppm was 67%.

What about the mortality at 200 ppm (Caenorhabditis elegans; [4]) of the same compound?
The mortality at 200 ppm was 89%.

What about the mortality at 300 ppm (Caenorhabditis elegans; [4]) of the same compound?
The mortality at 300 ppm was 93%.

And the mortality at 400 ppm (Caenorhabditis elegans; [4])?
Its mortality at 400 ppm is 98%.

What about the mortality at 50 ppm (Caenorhabditis elegans; 168 h) of the same compound?
The mortality at 50 ppm was 81%.

And the mortality at 100 ppm (Caenorhabditis elegans; 168 h)?
The mortality at 100 ppm was 94%.

And the mortality at 200 ppm (Caenorhabditis elegans; 168 h)?
The mortality at 200 ppm was 99%.

What about the mortality at 300 ppm (Caenorhabditis elegans; 168 h) of the same compound?
The mortality at 300 ppm was 100%.

And the mortality at 400 ppm (Caenorhabditis elegans; 168 h)?
The mortality at 400 ppm was 100%.

And the mortality at 50 ppm (Caenorhabditis elegans; [5])?
Its mortality at 50 ppm is 78%.

What about the mortality at 100 ppm (Caenorhabditis elegans; [5]) of the same compound?
Its mortality at 100 ppm is 93%.

And the mortality at 200 ppm (Caenorhabditis elegans; [5])?
The mortality at 200 ppm was 99%.

What about the mortality at 300 ppm (Caenorhabditis elegans; [5]) of the same compound?
The mortality at 300 ppm was 100%.

What about the mortality at 400 ppm (Caenorhabditis elegans; [5]) of the same compound?
Its mortality at 400 ppm is 100%.

What about the “LC50 (ppm)” value (Drosophila melanogaster; 48 hr) of the same compound?
The value was 170.05 ppm.

And the “LC50 (ppm)” value (Drosophila melanogaster; 72 hr)?
The value was 115.67 ppm.
